Peptide text beside a SMILES is read from it.
What was measured:
SHSY5Y cells = experiment: in vitro; format: cell-based; conditions: incubated for 24 hours; FIG. 10
Experimental: (§1) To determine the viability of cells within the hydrogels formed by L1 and L3, a Calcein-AM based toxicity assay was carried out. SHSY5Y cells were used for the toxicity assay. Cells were cultured in complete DMEM with 10% FBS, 1× Glutamax and 1% pen-strep antibiotic cocktail in a humidified incubator at 37° C. with 5% CO2. Cells cultured at 80% confluency in the culture vessel were used for the assay. SHSY5Y cells were washed with phosphate-buffered saline and treated with Accutase® to lift them of the culture vessel. Subsequently, it was neutralized with a double amount of complete media and centrifuged at 300 rpm for 5 minutes to obtain a cell pellet. Around 10,000 live cells (counted on a hemocytometer by Trypan blue exclusion) were added to 20 μL of each hydrogel and plated in a well of a 96 well polystyrene TC plate (with technical replicate=3). After 20 minutes, 100 μL complete media was added to each well. For control, a similar number of cells were added to a well without the hydrogel. 20 μL of phosphate buffer was added to each of the control wells. Cells were cultured for 24 hours before performing the Calcein-AM assay. Calcein-AM assay was carried out according to manufacturer's protocol. The viable cells were imaged with a wide-field fluorescence microscope and quantified.

in vitro = format: cell-based; conditions: human
Experimental: as §1

[1] = Hydrogel formation from laminin derived peptides; format: physicochemical; conditions: 1 mg peptide in 200 μL 20 mM phosphate buffer pH 7.4, NaCl 50 mM to 150 mM, 24 hours
Experimental: As an example of hydrogels based on self-aggregating peptides derived from non-amyloid proteins, laminin hydrogels were generated. Laminin was analyzed in silico to identify self-aggregating regions. After identification of such a region in the protein, its sequence was further modified to facilitate peptide self-assembly, and subsequently cross-beta sheet formation. Three peptides, L1-L3, were designed. The peptides were synthesized by a commercial vendor with 99% purity.
For forming the hydrogels, 1 mg peptide was mixed with 180 μL of 20 mM phosphate buffer, pH 7.4. The pH of this solution was raised to 10 by the gradual addition of 2N NaOH. NaCl was added to this solution in different quantities with a range from 50 mM to 150 mM final concentration. The pH of the solution was finally adjusted to 7.4 and the final volume of the solution was 200 μL. The solution was left undisturbed for 24 hours to facilitate the hydrogel formation.

hydrogel formation [1] | SMILES | viability of SHSY5Y cells relative to control (in words) (SHSY5Y cells) | viability at 24 h (in vitro)
formed hydrogels | CC(C)C[C@H](NC(=O)[C@H](Cc1ccc(O)cc1)NC(=O)[C@H](Cc1ccccc1)NC(=O)[C@H](CC(C)C)NC(=O)[C@H](CC(C)C)NC(=O)OCC1c2ccccc2-c2ccccc21)C(=O)O [L1] (HELM PEPTIDE1{[O=C(OCC1c2ccccc2-c2ccccc21)[*:2]].L.L.F.Y.L}$$$$V2.0; C-terminus assumed) | high viability | 85%
formed hydrogels | CC(C)C[C@H](NC(=O)[C@H](Cc1ccc(O)cc1)NC(=O)[C@@H](NC(=O)[C@H](CC(C)C)NC(=O)[C@H](CC(C)C)NC(=O)OCC1c2ccccc2-c2ccccc21)C(C)C)C(=O)O [L3] (HELM PEPTIDE1{[O=C(OCC1c2ccccc2-c2ccccc21)[*:2]].L.L.V.Y.L}$$$$V2.0; C-terminus assumed) | high viability | 87%
